Assay in all cases: NCI-60 cell line screen, 48 h
Test [1] relates to A549 NSCLC.
The subject of test [2] is OVCAR-5 ovarian.
In test [3] the test system is HOP-92 NSCLC.
Test [4] deals with MALME-3M melanoma.
In test [5] the test system is LOX IMVI melanoma.
Test [6] relates to UO-31 renal.
In test [7] the test system is SR leukemia.
Test [8] relates to HT29 colon.
Test [9] concerns SF-539 CNS.
Test [10] concerns SK-OV-3 ovarian.

Where “and” joins values, the source holds several entries; their conditions need not be identical. Equal entries are not always repeated.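 In this assay, cells in 96-well plates receive the compound at five concentrations for 48 hours. Endpoints are linearly interpolated between the surrounding concentrations. GI50 = concentration required for 50% inhibition of growth. The concentration for full growth arrest is given as TGI.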

Turning to `Nc1nc2c(nnn2C2OC(CO)C(O)C2O)c(=O)[nH]1` (stereo not drawn), the GI50 in test [1] was 3.01 µM; in test [2], 13.3 µM; in test [3] it was 0.505 µM; in test [4], 4.62 µM; in [5], 0.475 µM; in [6] it was 1.71 µM. Further, the GI50 is 1.16 µM in test [7], 1.66 µM in test [8], 1.59 µM in test [9] and 0.33 µM in [10]. The TGI in test [1] is greater than 100 µM; in [2] it was greater than 100 µM; in test [3], 68.4 µM; in [4], greater than 100 µM; in [5], greater than 100 µM; in [6], greater than 100 µM. The TGI in test [7] was greater than 100 µM; in test [8] it was 42.6 µM; in test [9], greater than 39.7 µM; in [10] it was greater than 23.9 µM.

Regarding `CO[C@]12C=C/C(=C(/C(=O)OCc3cccnc3)C(=O)CCCCCCCC[C@@]3(OC)C=C/C(=C(/C(=O)OCc4cccnc4)C(=O)CCCCCCCC1)O3)O2`, the GI50 is 1.65 µM in test [1]; 1.99 µM in test [2]; 1.86 µM in test [3]; 1.11 µM in test [4]; 0.585 µM in test [5]; 1.21 µM in [6]. Moreover, the GI50 was 1.12 µM in test [7], 1.7 µM in test [8], 1.64 µM in [9] and 2.43 µM in test [10]. In addition, the TGI in test [1] worked out at 9.2 µM; in test [2] it was 15.5 µM; in test [3], 4.83 µM; in test [4] it was 3.7 µM; in test [5], 1.6 µM; in test [6] it was 4.34 µM. Moreover, the TGI in test [7] was greater than 50 µM; in test [8] it was greater than 50 µM; in test [9], 7.91 µM; in test [10], greater than 50 µM.

With `Cc1ccc(/C=C/C(=N/N=C(N)N)c2ccccc2)cc1`, the GI50 in test [1] is 3.46 µM; in [2] it was 2.97 µM; in test [3], 2.25 µM; in test [4], 3.8 µM; in test [5], 3.28 µM; in test [6], 3.75 µM. The GI50 in [7] is 0.897 µM; in test [8] it was 2.53 µM; in test [9], 2.75 µM; in test [10], 2.99 µM. Further, the TGI is 12.5 µM in test [1]; 12.4 µM in test [2]; 8.42 µM in [3]; 20.2 µM in [4]; 15.5 µM in [5]; 17.2 µM in test [6]. Besides, the TGI in [7] was 6.32 µM; in test [8], 7.59 µM; in [9], 8.65 µM; in test [10], 12.2 µM.

Consider `COC(=O)C1=Cc2cc(OC)c(OC)cc2[C@H](c2ccc(OC)c(OC)c2)C1C(=O)OC` (stereo partly drawn), for which the TGI in test [1], in [2], in test [3], in test [4], in [5] and in [6] was greater than 100 µM each time. Moreover, the TGI in [7], in test [8], in test [9] and in test [10] was greater than 100 µM each time.

Regarding `O=C(/C=C/c1ccccc1Cl)c1cccc2ccccc12`, the TGI in test [1] came to 34 µM; in [2], 26.7 µM; in test [3], 34.9 µM; in test [4], 30.1 µM; in [5] it was 24.3 µM; in [6] it was 21.3 µM. For the same compound, the TGI in test [7] was determined as 9.16 µM; in test [8], 23.6 µM; in test [9], 23.3 µM; in test [10] it was 34.8 µM.

For the compound `O=C(c1ccco1)c1c(C(F)(F)F)nc2ccc(C(F)(F)F)cc2[n+]1[O-]`, the GI50 in test [1] was greater than 64.4 µM; in test [2], 46.9 µM; in [3] it was 21 µM; in [4], 20.8 µM; in test [5], 47.8 µM; in [6], 38.7 µM. The GI50 is greater than 91.7 µM in [7], greater than 61.4 µM in test [8], 18.3 µM in [9] and 35 µM in test [10]. The TGI in test [1] is greater than 100 µM; in test [2], greater than 100 µM; in test [3] it was 49.2 µM; in test [4], 47.7 µM; in [5], greater than 100 µM; in [6] it was greater than 100 µM. In addition, the TGI is greater than 100 µM in [7], greater than 100 µM in [8], 34.5 µM in [9] and greater than 100 µM in test [10].

With `COC(=O)N/N=C(\C(=O)Nc1cccc([N+](=O)[O-])c1)c1nc2ccc([N+](=O)[O-])cc2[nH]c1=O`, the TGI in [1], in [2], in test [3], in [4], in test [5] and in test [6] was greater than 100 µM throughout. The TGI in [7], in test [8], in test [9] and in test [10] was greater than 100 µM each time.

For `C=C1COC(O)(C2OCOC(C3CC(=O)NC(=O)C3)C2O)C1C` (stereo not drawn), the GI50 is 0.00282 µM in test [1]; 0.00331 µM and 0.017 µM in test [2]; 0.00585 µM and 0.0117 µM in [3]; 0.00285 µM in [4]; 0.00234 µM in test [5]; 0.00204 µM in [6]. Moreover, the results for the GI50 in [9] and in test [10] were 0.00165 µM and 0.00429 µM, respectively. The TGI in test [1] was 0.0303 µM and 0.0326 µM; in [2], 0.0499 µM and 0.0546 µM; in [3] it was 0.0354 µM and 0.045 µM; in [4], 0.0154 µM and 0.0364 µM; in test [5], 0.00553 µM and 0.0217 µM; in test [6], 0.0278 µM and 0.0215 µM. The TGI in test [7] was 0.00841 µM; in test [8], 0.0207 µM and 0.0511 µM; in test [9], 0.0064 µM and 0.00602 µM; in test [10], 0.052 µM.

Turning to `O=c1c2cccc(F)c2sc2c(N3CCNCC3)nc3ccccc3c12`, the GI50 in test [1] is 0.89 µM; in test [2], 1.59 µM; in test [3], 1.11 µM; in test [4], 1.67 µM; in test [5], 1.42 µM; in test [6], 0.597 µM. Moreover, the GI50 was 1.08 µM in [7], 1.13 µM in test [8], 1.71 µM in [9] and 1.64 µM in [10]. Further, the TGI in test [1] stood at 2.71 µM; in test [2], 3.03 µM; in test [3] it was 2.6 µM; in test [4], 3.07 µM; in test [5], 2.81 µM; in test [6], 2.04 µM. In addition, the TGI in test [7] is 3.35 µM; in [8], 2.59 µM; in test [9], 3.11 µM; in test [10], 3.41 µM.

On to `CCCCCCC/C=C/[C@H]1O[C@]2(O)C(=O)C=C3C[C@@H](O[C@@H]4O[C@H](CO)[C@@H](O)C(O)[C@@H]4O)C[C@@H]3[C@H]2C=C1C` (stereo partly drawn), for which the GI50 in [1] is 5.98 µM; in test [2], 4.74 µM; in test [3] it was 3.3 µM; in test [4], 4.8 µM; in test [5] it was 0.677 µM; in [6] it was 0.666 µM. Moreover, the GI50 in [7] was 0.717 µM; in test [8], 4.13 µM; in [9], 1.32 µM; in test [10], 5.95 µM. The TGI in test [1] stood at 23.4 µM; in test [2], 10.8 µM; in [3] it was 11.3 µM; in test [4] it was 10.3 µM; in test [5], 1.61 µM; in test [6], 2.36 µM. The TGI came to 2.85 µM in test [7], 10 µM in test [8], 5.12 µM in test [9] and 16.4 µM in test [10].

For the compound `NC(=O)c1ncn(CCN2CCN(C(=O)NCCCCCCNC(=O)N3CCN(CCn4cnc(C(N)=O)c4N)CC3)CC2)c1N`, the TGI in test [1], in test [2], in test [3], in test [4], in [5] and in test [6] was greater than 100 µM throughout. Further, the TGI in [7], in test [8], in test [9] and in test [10] was greater than 100 µM each time.

`O=C1C(Nc2ccc(Br)cc2)=C(I)C(=O)c2ncccc21`: the GI50 in test [1] was 2.24 µM; in test [2], 1.58 µM; in [3], 0.815 µM; in test [4], 0.731 µM; in test [5], 0.668 µM; in test [6], 0.641 µM. The GI50 in [7] is 0.314 µM; in [8], 1.83 µM; in [9], 1.03 µM; in [10], 5.61 µM. The TGI in test [1] is 8.18 µM; in [2], 5.71 µM; in [3], 1.61 µM; in test [4] it was 1.41 µM; in test [5], 1.41 µM; in test [6], 1.85 µM. Also, the TGI in test [7] is 2.42 µM; in test [8] it was 9.19 µM; in test [9], 2.49 µM; in test [10], 11.6 µM.

As to `CCC(CCC(C)C1CCC2C3CC=C4CC(OC5OC(CO)C(O)C(O)C5O)CCC4(C)C3CCC12C)C(C)C` (stereo not drawn), the TGI in test [1], in test [2], in test [3], in test [4], in test [5] and in [6] was greater than 100 µM throughout. Also, the TGI in test [7], in [8], in test [9] and in test [10] was greater than 100 µM each time.

Take `Clc1cc2c(nn1)Nc1ccccc1S2`: the GI50 in test [1], in [2], in test [3], in test [4], in test [5] and in [6] was greater than 100 µM throughout. Moreover, the GI50 in test [7], in test [8], in test [9] and in test [10] was greater than 100 µM each time. For the same compound, the TGI in [1], in test [2], in test [3], in [4], in test [5] and in test [6] was greater than 100 µM in each case. Moreover, the TGI in [7], in test [8], in test [9] and in [10] was greater than 100 µM in each case.

For the compound `CC(=O)c1ccc(Nc2nc(Nc3ccc(F)cc3)nc(Nc3ccc(F)cc3)n2)cc1`, the GI50 in test [1] is 5.81 µM; in test [2], 35.1 µM; in test [3] it was 5.64 µM; in test [4], 6.73 µM; in test [5], 18.2 µM; in test [6] it was 7.68 µM. The GI50 was 4.24 µM in [7], 5.79 µM in test [8], 3.07 µM in [9] and 10.5 µM in test [10]. The TGI is 32.5 µM in [1]; greater than 100 µM in test [2]; 31.5 µM in test [3]; 42.1 µM in [4]; greater than 100 µM in test [5]; 24.3 µM in [6]. For the same compound, the TGI in test [7] was greater than 100 µM; in test [8], greater than 100 µM; in [9] it was 12.1 µM; in [10], 83.6 µM.

For `COc1cc2nc(-c3ccc(Cl)cc3)cc(OCCCN3CCCC3)c2cc1OC`, the GI50 was 1.52 µM in test [1]; 1.03 µM in test [2]; 0.85 µM in [3]; 1.68 µM in test [4]; 0.191 µM in test [5]; 1.72 µM in [6]. Also, the GI50 in test [7] is 0.251 µM; in test [8], 0.454 µM; in test [9] it was 2.44 µM; in [10] it was 2.42 µM. Further, the TGI in test [1] came out at 12.4 µM; in [2], 13.7 µM; in [3], 5.43 µM; in [4] it was 4.52 µM; in [5], 0.446 µM; in test [6], 6.63 µM. Moreover, the TGI was found to be 1.38 µM in [7], 4.17 µM in test [8], 8.07 µM in test [9] and 15.3 µM in test [10].

As for `COc1cc2oc(-c3ccc(O)cc3O)c(CC=C(C)C)c(=O)c2c(O)c1/C=C/C(C)C`, the TGI worked out at 7.75 µM in test [1]; 18.7 µM in [2]; 7.3 µM in test [3]; 14.2 µM in test [4]; 3.32 µM in test [5]; 8.08 µM in test [6]. The TGI in [7] was 4.44 µM; in [8] it was 5.74 µM; in [9], 10.4 µM; in test [10] it was 20.6 µM.

The record behind these values is PubChem BioAssay (NCI).
